In patent US8501792B2, “Treating cancer with desthiazolyl ritonavir” (priority 2008, dated 2013):

Test system: Purified mammalian Hsp90
Assay: Hsp90 binding on CM-5 BIAcore chip (surface plasmon resonance)
Description: Inhibition of Hsp90 can be evaluated by surface plasmon resonance studies of a compound of formula I, using a CM-5 Biacore chip on which Hsp90 (Stressgen, Ann Arbor) has been immobilized. This method can also be used to evaluate the chaperoning activity of a compound of formula I by evaluation of luciferase refolding. See Examples 4 and 9.
Purified mammalian Hsp90 was attached to a CM-5 BIAcore chip through an NHS ester linkage. After attachment of the Hsp90 and blocking the chip with BSA, M1 drug or a 17-AAG control was circulated through a microfluidic circuit and change in refractive index was measured by quantification of the RU value for each drug concentration. In the case of the 17-AAG control the binding was saturable and based on the kon and koff measurements, the KD was estimated to be in the 1 microM range. […] This means that there are significant differences in the binding of M-1 and may indicate alteration of the Hsp90 structure.

- binding to Hsp90, saturability (RU value versus drug concentration, FIG. 11): saturable
- Kd (estimated from kon and koff measurements): ~1000 nM
SMILES: C=CCNC1=C2C[C@@H](C)C[C@H](OC)[C@H](O)[C@@H](C)/C=C(\C)[C@H](OC(N)=O)[C@@H](OC)/C=C\C=C(/C)C(=O)NC(=CC1=O)C2=O [17-AAG]
